One assay deals with mast cell degranulation. Nature of the assay: Compound 48/80-induced mast cell degranulation in wild type C57BL/6 mice, toluidine blue blood smear. It counts as in vivo. Conditions: for mast cell degranulation 0.5-1.5 hours post-injection of C48/40: approximately two hours before I.P. injection of compound 48/80, toluidine blue blood smear; for effect on mast cell degranulation induced by C48/40: single I.P. injection two hours prior to compound 48/80 treatment, blood smear. On the procedure:
Wild type C57BL/6J mice were treated with C48/40 to induce mast cell activation. Compound 48/80 is a polymer produced by the condensation of N-methyl-p-methoxyphenethylamine with formaldehyde. It promotes histamine release, and in biochemical research, compound 48/80 (for example, Catalog No. C2313, Sigma-Aldrich, St. Louis, MO) is used to promote mast cell degranulation. Male and female, 4-8 months old wild type C57BL/6 mice were treated only once with intraperitoneal (I.P.) injection of DMSO (control) or DMSO for 2 hours followed by C48/40 for 0.5-1.5 hours. Mice were injected with DMSO approximately 2 hours prior to injection (IP) with 50 μg C48/40 to show degranulation of mast cells 0.5-1.5 hours post-injection of C48/40. Animals were also injected with 20 mg/kg BK40197, BK40195 or BK40196; or 10 mg/kg BK40143 approximately two hours before I.P. injection of C48/40 to show the effects of the drugs on mast cell degranulation approximately 0.5-1.5 hours post-injection of C48/40. Drugs and C48/40 were injected on the same site. n=6 per treatment. Blood was collected and a smear was prepared and stained with Toluidine blue to show mast cell morphology.

The target of another assay is T1, FYN (Homo sapiens, UniProt P06241).
T1 construct: purchased Eurofins DiscoverX Corporation
T1 sequence (P06241 whole entry): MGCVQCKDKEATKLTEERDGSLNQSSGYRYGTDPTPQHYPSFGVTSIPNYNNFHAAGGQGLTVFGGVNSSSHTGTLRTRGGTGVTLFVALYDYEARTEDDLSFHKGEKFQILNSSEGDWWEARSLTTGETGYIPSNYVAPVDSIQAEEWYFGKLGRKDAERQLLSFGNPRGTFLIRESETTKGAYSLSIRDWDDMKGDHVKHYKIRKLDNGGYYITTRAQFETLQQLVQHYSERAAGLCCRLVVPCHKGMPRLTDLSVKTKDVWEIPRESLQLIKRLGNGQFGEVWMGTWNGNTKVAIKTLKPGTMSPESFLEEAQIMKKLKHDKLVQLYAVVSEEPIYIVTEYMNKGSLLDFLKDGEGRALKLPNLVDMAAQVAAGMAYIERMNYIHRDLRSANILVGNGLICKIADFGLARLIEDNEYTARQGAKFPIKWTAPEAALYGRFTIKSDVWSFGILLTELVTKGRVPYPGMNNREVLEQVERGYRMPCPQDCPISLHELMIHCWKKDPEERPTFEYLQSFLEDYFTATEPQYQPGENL
Nature of the assay: KINOMEscan competition binding screen, FYN. Conditions: for remaining binding at 10 µM: read-out: % Ctrl @ 10 μM. The method, then:
The KINOMEscan™ screening platform (Eurofins DiscoverX Corporation, San Diego, USA) was performed using an active site-directed competition binding assay to quantitatively measure interactions between BK40143, BK40197, BK40195, and BK40196 and more than 450 human kinases and disease relevant mutant variants. […] Screening “hits” were identified by measuring the amount of kinase captured in test (BK40143, BK40197, BK40195, and BK40196) versus control samples by using a quantitative and ultra-sensitive qPCR method that detects the associated DNA label. BK40143, BK40197, BK40195, and BK40196 were screened at 10 μM concentration, and results for primary screen binding interactions were reported as ‘% Ctrl’ (POC), where lower numbers indicate stronger hits and calculated as follows:
[formula] • test compound=BK40143 or BK40197 or BK40195 or BK40196 • negative control=DMSO (100% Ctrl) • positive control=control compound (0% Ctrl)
Based on screening data of profiled compounds, a proportional relationship between primary screening results and corresponding compound/target affinities can be described as binding constants (Kd values) for the indicated ranges of percent of control (PoC) values, with tighter binding (higher affinity) interactions associated with lower PoC values, and weaker binding (lower affinity) associated with higher PoC values. Briefly, kinase-tagged T7 phage strains were grown in parallel in 24-well blocks in an E. coli host derived from the BL21 strain. E. coli were grown to log-phase and infected with T7 phage from a frozen stock (multiplicity of infection=0.4) and incubated with shaking at 32° C. until lysis (90-150 minutes). The lysates were centrifuged (6,000×g) and filtered ([…]) to remove cell debris. The remaining kinases were produced in HEK-293 cells and subsequently tagged with DNA for qPCR detection. Streptavidin-coated magnetic beads were treated with biotinylated small molecule ligands for 30 minutes at room temperature to generate affinity resins for kinase assays. The liganded beads were blocked with excess biotin and washed with blocking buffer (SeaBlock (Pierce), 1% BSA, 0.05% Tween 20, 1 mM DTT) to remove unbound ligand and to reduce non-specific phage binding. Binding reactions were assembled by combining kinases, liganded affinity beads, and test compounds in 1× binding buffer (20% SeaBlock, 0.17×PBS, 0.05% Tween 20, 6 mM DTT). Test compounds were prepared as 100× stocks in 100% DMSO and directly diluted into the assay. All reactions were performed in polypropylene 384-well plates in a final volume of 0.02 ml. The assay plates were incubated at room temperature with shaking for 1 hour and the affinity beads were washed with wash buffer (1×PBS, 0.05% Tween 20). The beads were then re-suspended in elution buffer (1×PBS, 0.05% Tween 20, 0.5 μM non-biotinylated affinity ligand) and incubated at room temperature with shaking for 30 minutes. The kinase concentration in the eluates was measured by qPCR.

The target of another assay is T2, DDR1 (Homo sapiens, UniProt Q08345).
T2 construct: purchased Luceome Biotechnologies, LLC
T2 sequence (Q08345 19-913): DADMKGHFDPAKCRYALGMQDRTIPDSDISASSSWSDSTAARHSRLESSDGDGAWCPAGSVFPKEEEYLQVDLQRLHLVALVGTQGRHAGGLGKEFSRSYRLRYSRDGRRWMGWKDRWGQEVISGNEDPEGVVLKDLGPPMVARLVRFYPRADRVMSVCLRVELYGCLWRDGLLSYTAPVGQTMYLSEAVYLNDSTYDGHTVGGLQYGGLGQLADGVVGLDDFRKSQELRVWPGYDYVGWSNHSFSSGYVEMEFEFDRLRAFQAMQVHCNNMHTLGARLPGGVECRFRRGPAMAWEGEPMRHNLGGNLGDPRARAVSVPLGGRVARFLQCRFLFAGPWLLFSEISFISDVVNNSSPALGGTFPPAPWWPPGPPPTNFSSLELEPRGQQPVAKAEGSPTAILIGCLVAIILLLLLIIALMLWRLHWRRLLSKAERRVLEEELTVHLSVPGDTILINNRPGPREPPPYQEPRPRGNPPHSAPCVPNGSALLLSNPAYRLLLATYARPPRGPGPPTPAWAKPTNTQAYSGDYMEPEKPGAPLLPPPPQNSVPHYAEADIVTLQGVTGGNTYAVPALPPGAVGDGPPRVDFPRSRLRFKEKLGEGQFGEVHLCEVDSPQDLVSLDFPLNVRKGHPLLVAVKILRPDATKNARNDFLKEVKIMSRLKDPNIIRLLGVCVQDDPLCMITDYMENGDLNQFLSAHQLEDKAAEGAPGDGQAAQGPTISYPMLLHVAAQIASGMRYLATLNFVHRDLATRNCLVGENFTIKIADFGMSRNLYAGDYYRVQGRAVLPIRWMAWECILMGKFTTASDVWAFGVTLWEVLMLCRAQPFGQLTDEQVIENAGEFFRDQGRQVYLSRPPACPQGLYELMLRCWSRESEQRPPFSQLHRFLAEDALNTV
The assay is described as follows: KINASESEEKER competition binding assay, DDR1. To be noted: minimum 8-point curve, duplicate. On the procedure:
Kinase assays were performed using KINASESEEKER™ (Luceome Biotechnologies, LLC; Tucson, AZ). KINASESEEKER™ is a homogeneous competition binding assay in which the displacement of an active site-dependent probe by an inhibitor is measured by a change in luminescence signal. Luminescence readout translates into a highly sensitive and robust assay with low background and minimal interference from test compounds. See J. Am. Chem. Soc., 2010, 132, 11727-11735.
Stock solutions of compounds were serially diluted in DMSO to make assay stocks. Prior to initiating IC50 determination, the test compounds were evaluated for false positives against split-luciferase. The compounds were screened against kinases at a minimum of 8 different concentrations in duplicate. For kinase assays, a 24 μL aliquot of lysate containing Cfluc-kinase and Fos-Nfluc was incubated for 2 hours with either 1 μL of DMSO (for no-inhibitor control) or compound solution in DMSO in presence of a kinase specific probe. 80 μL of luciferin assay reagent was added to each solution and luminescence was immediately measured on a luminometer.
The % Inhibition and % Activity Remaining was calculated using the following equation: […]
The % Activity Remaining was plotted against compound concentration and the IC50 was determined for each compound using a minimum 8-point curve.

In a further assay the test system is LUVA cells. Nature of the assay: MC maturation in LUVA cells by flow cytometry (CD117, FceR1). The assay is classed as cell-based, human. Conditions: 100 ng/mL SCF overnight, then 10 nM, 100 nM, 1 μM compound for 48 hours, vs DMSO. On the procedure:
A human mast cell (MC) line that arose spontaneously from a culture of non-transformed hematopoietic progenitor cells is described in J Allergy Clin Immunol, 2011, 127:815-22, which is incorporated herein by reference. The cells, termed LUVA cells, are an immortalized human MC line that can be maintained without stem cell factor (SCF) and that display high levels of normally signaling c-kit and FceR1.
The LUVA cells (Kerafast, EG1701-FP) were cultured in StemPro-34 serum-free media with 10% nutrient supplement, 1% L-glutamine, and 1% pen/strep and grown under normal atmospheric conditions (5% CO2). The cells were plated and treated with 100 ng/mL of SCF overnight and then treated with DMSO or an ascending dose of either BK40143, BK40196, or BK40197 for 48 hours, before collection and incubation with two flow-conjugated antibodies (PE anti-mouse CD117 (c-kit) and APC/fire 750 anti-mouse FceR1a) and subsequent analysis via flow cytometry. Group differences were compared using unpaired Student's t-tests.

What is called inhibition is the drop in the measured response relative to a control, in per cent. Low values mean a weak effect, high ones a strong effect. The term IC50 denotes the concentration at which inhibition is half-maximal.

Turning to `Cc1cccc(-c2cc3nccc(Nc4ccccc4)c3s2)c1` [BK40143], the “mast cell degranulation 0.5-1.5 hours post-injection of C48/40” value in the assay with mast cell degranulation (10 mg/kg) was “absence of mast cell degranulation”. In addition, in the assay with mast cell degranulation, the “effect on mast cell degranulation induced by C48/40” value (“effect” below) is “significantly prevented mast cell degranulation”. On FYN, 10 µM produced 90% inhibition and the remaining binding at 10 µM was 10%. For the same compound, the IC50 on DDR1 is 7050 ± 1050 nM. The “number of immature MCs (CD117 only) compared to mature MCs (CD117 and FceR1)” value in the assay on LUVA cells was “significantly increased”.

Consider `COc1cccc(Nc2ccnc3cc(-c4cccc(C)c4)sc23)c1` [BK40195], for which, in the assay on mast cell degranulation (20 mg/kg), the “mast cell degranulation 0.5-1.5 hours post-injection of C48/40” value was “absence of mast cell degranulation”. The “effect” value in the assay on mast cell degranulation is listed as “significantly prevented mast cell degranulation”. Further, on FYN, the inhibition at 10 µM came out at 97.6% and the remaining binding at 10 µM was 2.4%. Besides, the IC50 on DDR1 came out at 2200 ± 260 nM.

As for `Cc1cccc(-c2cc3nccc(Nc4cccc(O)c4)c3s2)c1` [BK40196], the “mast cell degranulation 0.5-1.5 hours post-injection of C48/40” value with mast cell degranulation (10 mg/kg) is on record as “absence of mast cell degranulation”. In addition, in the assay on mast cell degranulation, the “effect” value is “significantly prevented mast cell degranulation”. For the same compound, at FYN, at 10 µM the inhibition was 100% and the remaining binding at 10 µM is 0%. This compound also yielded an IC50 on DDR1 of 1070 ± 130 nM. Moreover, the “number of immature MCs (CD117 only) compared to mature MCs (CD117 and FceR1)” value with LUVA cells was “significantly increased”.

In the case of `Cc1cccc(-c2cc3nccc(N4CCOCC4)c3s2)c1` [BK40197], the “mast cell degranulation 0.5-1.5 hours post-injection of C48/40” value in the assay on mast cell degranulation (20 mg/kg) was “absence of mast cell degranulation”. Also, in the assay with mast cell degranulation, the “effect” value is on record as “significantly prevented mast cell degranulation”. Moreover, on FYN, testing at 10 µM gave an inhibition of 44% and the remaining binding at 10 µM was determined as 56%. Also, in the assay on LUVA cells, the “number of immature MCs (CD117 only) compared to mature MCs (CD117 and FceR1)” value is recorded as “significantly increased”.

For the origin of these results see patent US20240423995A1, “C-KIT INHIBITORS AND USES FOR TREATING AND PREVENTING INFLAMMATORY CONDITIONS” (GEORGETOWN UNIVERSITY, priority 2023, published 2024).
